In PubChem BioAssay (NCI):
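Briefly, cells in 96-well plates were exposed to five compound concentrations for 48 h, and endpoints were estimated by linear interpolation. At the TGI there is no net growth.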

How the values were obtained:
Assay in all cases: NCI-60 cell line screen, 48 h
BT-549 breast = system: BT-549 breast
OVCAR-3 ovarian = system: OVCAR-3 ovarian
DU-145 prostate = system: DU-145 prostate
HCT-116 colon = system: HCT-116 colon
SK-OV-3 ovarian = system: SK-OV-3 ovarian
U251 CNS = system: U251 CNS
SF-539 CNS = system: SF-539 CNS
HOP-92 NSCLC = system: HOP-92 NSCLC
CCRF-CEM leukemia = system: CCRF-CEM leukemia
MOLT-4 leukemia = system: MOLT-4 leukemia
RPMI-8226 leukemia = system: RPMI-8226 leukemia

Row | SMILES | TGI (BT-549 breast) | TGI (OVCAR-3 ovarian) | TGI (DU-145 prostate) | TGI (HCT-116 colon) | TGI (SK-OV-3 ovarian) | TGI (U251 CNS) | TGI (SF-539 CNS) | TGI (HOP-92 NSCLC) | TGI (CCRF-CEM leukemia) | TGI (MOLT-4 leukemia) | TGI (RPMI-8226 leukemia)
1 | Cc1ccc(C2=Nc3c(c(C)nn3-c3ccccc3)N=C(C(=O)O)C2)cc1 | > 10 µM | > 10 µM | > 10 µM | > 10 µM | > 10 µM | > 10 µM | > 10 µM | > 10 µM | > 10 µM | > 10 µM | 
2 | CC1CC(C#N)=C2NCCCCN2C1=O (stereo not given) | > 100 µM | > 100 µM | > 100 µM |  | > 100 µM | > 100 µM | > 100 µM |  | > 100 µM | > 100 µM | > 100 µM
3 | O=C(OCc1ccccc1)OOC(=O)OCc1ccccc1 |  | > 100 µM |  | > 100 µM | > 100 µM | > 100 µM | > 100 µM | > 100 µM | > 100 µM | > 100 µM | > 100 µM
4 | Cc1ccc(C(=O)Nc2ccc(CP(=O)(O)O)cc2)cc1NC(=O)c1cccc(NC(=O)Nc2cccc(C(=O)Nc3cc(C(=O)Nc4ccc(CP(=O)(O)O)cc4)ccc3C)c2)c1 | > 100 µM | > 100 µM | > 100 µM | > 100 µM | > 100 µM | > 100 µM | > 100 µM |  | > 100 µM |  | > 100 µM
5 | OCc1ccccc1C1CSCSC1 |  | > 100 µM |  | > 100 µM | > 100 µM | > 100 µM | > 100 µM |  | > 100 µM | > 100 µM | 
6 | CC(C)c1c(P(=O)(c2ccccc2)c2ccccc2)n(C)c2ccccc12 | > 100 µM | > 100 µM | > 100 µM | > 100 µM |  | > 100 µM | > 100 µM | > 100 µM | > 100 µM | > 100 µM | > 100 µM
7 | CCN(CCCN(CC)C(=O)N[C@@H](Cc1ccccc1)C(=O)NC)C(=O)N[C@@H](Cc1ccccc1)C(=O)NC | > 100 µM | > 100 µM | > 100 µM | > 100 µM | > 100 µM | > 100 µM | > 100 µM | > 100 µM |  |  | 
8 | c1ccc(N=c2snc(-c3ccccc3)s2)cc1 |  |  |  | > 100 µM | > 100 µM | > 100 µM | > 100 µM |  | > 100 µM | > 100 µM | > 100 µM
9 | O=C(/C=C/c1cccs1)c1ccc(Cl)cc1 |  |  | > 100 µM | > 100 µM | > 100 µM | > 100 µM | > 100 µM |  | 68 µM | 48.9 µM | 57.8 µM
10 | O=C1/C(=C/c2ccc(F)cc2)CNC/C1=C\c1ccc(F)cc1 | 3.67 µM | 3.99 µM | 3.96 µM | 0.915 µM | 29.6 µM | 1.39 µM | 2.39 µM | > 21.5 µM | > 100 µM | > 40.5 µM | 
11 | O=C1OC[C@@H]2Cc3c([nH]c4ccccc34)[C@@H](c3ccc(O)cc3)N12 |  | 43.8 µM | > 100 µM | 35 µM | > 95.1 µM | > 100 µM | > 74 µM | > 100 µM | > 84.4 µM | > 75.3 µM | > 80.9 µM
12 | CN(C)c1ccc(/C(Br)=C2\OC(=O)c3ccccc32)cc1 |  |  | > 100 µM | > 100 µM | > 100 µM | > 100 µM | > 100 µM |  | > 100 µM | > 100 µM | 71.7 µM
13 | CC1=C2c3ccccc3N(C(=O)/C=C/C(=O)O)[C@H]2[C@H]2C(=O)OC(=O)[C@H]2C1 |  | > 10 µM | > 10 µM | > 10 µM | > 10 µM | > 10 µM | > 10 µM |  | > 10 µM | > 10 µM | > 10 µM
14 | Cc1nc(Cl)c(CBr)c(Cl)n1 | 0.747 µM | 1.97 µM | 8.33 µM | 1.19 µM | 12.7 µM | 4.1 µM | 3.72 µM |  | 0.772 µM | 1.09 µM | 4.47 µM
15 | O=C1/C(=C/c2ccc(Br)s2)NC(=S)N1CN1CCOCC1 | > 100 µM | > 100 µM | > 100 µM | > 100 µM |  | > 100 µM |  |  |  | > 100 µM | 43 µM
16 | CN1CCN(C(=S)N(C)C(=O)c2ccc(Cl)cc2)CC1 | > 100 µM | > 100 µM | > 100 µM |  |  | > 100 µM |  | > 100 µM | > 100 µM | > 100 µM | > 100 µM
17 | CC(=O)Nc1ccc(Cl)c(Cl)c1 |  | > 100 µM |  | > 100 µM | > 100 µM | > 100 µM | > 100 µM |  | > 100 µM | > 100 µM | > 100 µM
18 | Cc1nc2ccc([N+](=O)[O-])cc2c(=O)n1C(=S)Nc1cccc(Cl)c1 |  | 58.1 µM | > 100 µM | 36.9 µM | 71.8 µM | 66.9 µM | 43.1 µM | 25.6 µM | 62.3 µM | > 100 µM | 19.6 µM
19 | CC1=CC=CC(C)(C)CC1(O[Si](C)(C)C)C(F)(F)F (stereo not given) | > 100 µM | > 100 µM | > 100 µM | > 100 µM | > 100 µM | > 100 µM | > 100 µM | > 100 µM | > 100 µM |  | > 100 µM
20 | CN1C(=O)CN(NC(=O)C2=C(O)c3ccc(Br)cc3S(=O)(=O)N2)C1=S | > 100 µM |  | > 100 µM | > 100 µM | > 100 µM | > 100 µM |  | > 100 µM | 51.1 µM | > 100 µM | > 100 µM
21 | Cc1cc2cccc(Cl)c2nc1C(=O)c1ccccc1 |  | > 100 µM |  | > 100 µM |  | > 100 µM | > 100 µM |  |  |  | > 100 µM
22 | COc1ccc(CNc2nc3ccc(C(F)(F)F)cc3nc2-c2ccccc2)cc1OC |  | > 100 µM |  | > 100 µM | > 100 µM | > 100 µM | > 100 µM | 15.5 µM | > 100 µM | > 100 µM | > 100 µM
23 | CC(=O)CC(=O)c1cc2c(=O)oc(C)cc2oc1=O | > 37.5 µM | > 37.5 µM | > 37.5 µM | > 37.5 µM | > 37.5 µM | > 37.5 µM | > 37.5 µM |  | > 37.5 µM | > 37.5 µM | > 37.5 µM
